Assay results published in article PMC4279406, “Simultaneous targeting of PI3Kδ and a PI3Kδ-dependent MEK1/2-Erk1/2 pathway for therapy in pediatric B-cell acute lymphoblastic leukemia” (Oncotarget, 2014).

What was measured:
Assay in all cases: KinaseProfiler protein kinase activity
Assay type in all cases: biochemical
Conditions in all cases: 10 μM X-370
AMPK α1 = target: T1, AMPK α1 (Homo sapiens, UniProt Q13131)
T1 construct: purchased Millipore KinaseProfiler
Description: (§1) In vitro kinase profile assays were analyzed by the Kinase Profiler Service (Millipore, United Kingdom) following its guidelines. A GST-tagged human p110δ and regulatory full-length p85 were co-expressed in insect cell Sf9. Recombinant protein was extracted by affinity purification. The PI3K kinase activity was determined in the increasing concentration of ATP and X-370 with PI3-Kinase HTRF™ Assay kit (Millipore) as described previously. […]
(§2) Table S1: Inhibitory activity of X-370 against protein kinases
(§3) kinome at 10 μM. The relative kianse activity left in the presence of 10 μM were shown (Mi llipore
(§4) Kinase activity (% of control) Kinase activity (% of control) Kinase activity (% of control)
(§5) CDK1/cyclinB 97 Lck activated 89 Ret 125

ASK1 = target: T2, ASK1 (Homo sapiens, UniProt Q99683)
T2 construct: purchased Millipore KinaseProfiler
Description: as §1, §2, §3, §4, §5

Aurora-A = target: T3, Aurora-A (Homo sapiens, UniProt O14965)
T3 construct: purchased Millipore KinaseProfiler
Description: as §1, §2, §3, §4, §5

Axl = target: T4, Axl (Homo sapiens, UniProt P30530)
T4 construct: purchased Millipore KinaseProfiler
Description: as §1, §2, §3, §4, §5

BTK = target: T5, BTK (Homo sapiens, UniProt Q06187)
T5 construct: purchased Millipore KinaseProfiler
Description: as §1, §2, §3, §4, §5

CaMKI = target: T6, CaMKI (Homo sapiens, UniProt Q14012)
T6 construct: purchased Millipore KinaseProfiler
Description: as §1, §2, §3, §4, §5

DYRK2 = target: T7, DYRK2 (Homo sapiens, UniProt Q92630)
T7 construct: purchased Millipore KinaseProfiler
Description: as §1, §2, §3, §4, §5

EGFR = target: T8, EGFR (Homo sapiens, UniProt P00533)
T8 construct: purchased Millipore KinaseProfiler
Description: as §1, §2, §3, §4, §5

EphA1 = target: T9, EphA1 (Homo sapiens, UniProt P21709)
T9 construct: purchased Millipore KinaseProfiler
Description: as §1, §2, §3, §4, §5

FAK = target: T10, FAK (Homo sapiens, UniProt Q05397)
T10 construct: purchased Millipore KinaseProfiler
Description: as §1, §2, §3, §4, §5

FGFR1 = target: T11, FGFR1 (Homo sapiens, UniProt P11362)
T11 construct: purchased Millipore KinaseProfiler
Description: as §1, §2, §3, §4, §5

Flt1 = target: T12, Flt1 (Homo sapiens, UniProt P17948)
T12 construct: purchased Millipore KinaseProfiler
Description: as §1, §2, §3, §4, §5

Fyn = target: T13, Fyn (Homo sapiens, UniProt P06241)
T13 construct: purchased Millipore KinaseProfiler
Description: as §1, §2, §3, §4, §5

GSK3 α = target: T14, GSK3 α (Homo sapiens, UniProt P49840)
T14 construct: purchased Millipore KinaseProfiler
Description: as §1, §2, §3, §4, §5

IGF-1R, activated = target: T15, IGF-1R, activated (Homo sapiens, UniProt P08069)
T15 construct: purchased Millipore KinaseProfiler
Description: as §1, §2, §3, §4, §5

IKK α = target: T16, IKK α (Homo sapiens, UniProt O15111)
T16 construct: purchased Millipore KinaseProfiler
Description: as §1, §2, §3, §4, §5

IR, activated = target: T17, IR, activated (Homo sapiens, UniProt P06213)
T17 construct: purchased Millipore KinaseProfiler
Description: as §1, §2, §3, §4, §5

Itk = target: T18, Itk (Homo sapiens, UniProt Q08881)
T18 construct: purchased Millipore KinaseProfiler
Description: as §1, §2, §3, §4, §5

KDR = target: T19, KDR (Homo sapiens, UniProt P35968)
T19 construct: purchased Millipore KinaseProfiler
Description: as §1, §2, §3, §4, §5

LKB1 = target: T20, LKB1 (Homo sapiens, UniProt Q15831)
T20 construct: purchased Millipore KinaseProfiler
Description: as §1, §2, §3, §4, §5

Lck activated = target: T21, Lck activated (Homo sapiens, UniProt P06239)
T21 construct: purchased Millipore KinaseProfiler
Description: as §1, §2, §3, §4, §5

MAPK1 = target: T22, MAPK1 (Homo sapiens, UniProt P27361)
T22 construct: purchased Millipore KinaseProfiler
Description: as §1, §2, §3, §4, §5

MAPKAP-K2 = target: T23, MAPKAP-K2 (Homo sapiens, UniProt P49137)
T23 construct: purchased Millipore KinaseProfiler
Description: as §1, §2, §3, §4, §5

MARK1 = target: T24, MARK1 (Homo sapiens, UniProt Q9P0L2)
T24 construct: purchased Millipore KinaseProfiler
Description: as §1, §2, §3, §4, §5

MEK1 = target: T25, MEK1 (Homo sapiens, UniProt Q02750)
T25 construct: purchased Millipore KinaseProfiler
Description: as §1, §2, §3, §4, §5

Met = target: T26, Met (Homo sapiens, UniProt P08581)
T26 construct: purchased Millipore KinaseProfiler
Description: as §1, §2, §3, §4, §5

PDK1 = target: T27, PDK1 (Homo sapiens, UniProt O15530)
T27 construct: purchased Millipore KinaseProfiler
Description: as §1, §2, §3, §4, §5

PKA = target: T28, PKA (Homo sapiens, UniProt P17612)
T28 construct: purchased Millipore KinaseProfiler
Description: as §1, §2, §3, §4, §5

PKB α = target: T29, PKB α (Homo sapiens, UniProt P31749)
T29 construct: purchased Millipore KinaseProfiler
Description: as §1, §2, §3, §4, §5

PKC α = target: T30, PKC α (Homo sapiens, UniProt P17252)
T30 construct: purchased Millipore KinaseProfiler
Description: as §1, §2, §3, §4, §5

PKC μ = target: T31, PKC μ (Homo sapiens, UniProt Q15139)
T31 construct: purchased Millipore KinaseProfiler
Description: as §1, §2, §3, §4, §5

ROCK-I = target: T32, ROCK-I (Homo sapiens, UniProt Q13464)
T32 construct: purchased Millipore KinaseProfiler
Description: as §1, §2, §3, §4, §5

Ret = target: T33, Ret (Homo sapiens, UniProt P07949)
T33 construct: purchased Millipore KinaseProfiler
Description: as §1, §2, §3, §4, §5

Ron = target: T34, Ron (Homo sapiens, UniProt Q04912)
T34 construct: purchased Millipore KinaseProfiler
Description: as §1, §2, §3, §4, §5

SAPK2a(T106M) = target: T35, SAPK2a(T106M) (Homo sapiens, UniProt Q16539, T106M)
T35 construct: purchased Millipore KinaseProfiler
Description: as §1, §2, §3, §4, §5

TBK1 = target: T36, TBK1 (Homo sapiens, UniProt Q9UHD2)
T36 construct: purchased Millipore KinaseProfiler
Description: as §1, §2, §3, §4, §5

Tie2 = target: T37, Tie2 (Homo sapiens, UniProt Q02763)
T37 construct: purchased Millipore KinaseProfiler
Description: as §1, §2, §3, §4, §5

TrkA = target: T38, TrkA (Homo sapiens, UniProt P04629)
T38 construct: purchased Millipore KinaseProfiler
Description: as §1, §2, §3, §4, §5

cKit = target: T39, cKit (Homo sapiens, UniProt P10721)
T39 construct: purchased Millipore KinaseProfiler
Description: as §1, §2, §3, §4, §5

mTOR = target: T40, mTOR (Homo sapiens, UniProt P42345)
T40 construct: purchased Millipore KinaseProfiler
Description: as §1, §2, §3, §4, §5

p70S6K = target: T41, p70S6K (Homo sapiens, UniProt P23443)
T41 construct: purchased Millipore KinaseProfiler
Description: as §1, §2, §3, §4, §5

T29 sequence (P31749 whole entry): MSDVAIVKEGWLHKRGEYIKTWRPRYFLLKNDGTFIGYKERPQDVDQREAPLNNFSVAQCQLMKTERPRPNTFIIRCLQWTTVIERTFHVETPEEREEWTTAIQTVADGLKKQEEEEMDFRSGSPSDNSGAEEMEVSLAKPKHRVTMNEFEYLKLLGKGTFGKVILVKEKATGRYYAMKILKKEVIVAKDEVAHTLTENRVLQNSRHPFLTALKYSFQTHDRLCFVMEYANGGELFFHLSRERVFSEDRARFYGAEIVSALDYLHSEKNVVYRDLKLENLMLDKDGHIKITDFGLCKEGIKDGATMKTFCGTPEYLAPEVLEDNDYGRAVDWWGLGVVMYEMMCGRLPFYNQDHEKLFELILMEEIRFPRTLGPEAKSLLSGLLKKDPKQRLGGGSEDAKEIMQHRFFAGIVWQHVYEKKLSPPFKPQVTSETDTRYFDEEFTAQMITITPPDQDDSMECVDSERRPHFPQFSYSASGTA
T5 sequence (Q06187 whole entry): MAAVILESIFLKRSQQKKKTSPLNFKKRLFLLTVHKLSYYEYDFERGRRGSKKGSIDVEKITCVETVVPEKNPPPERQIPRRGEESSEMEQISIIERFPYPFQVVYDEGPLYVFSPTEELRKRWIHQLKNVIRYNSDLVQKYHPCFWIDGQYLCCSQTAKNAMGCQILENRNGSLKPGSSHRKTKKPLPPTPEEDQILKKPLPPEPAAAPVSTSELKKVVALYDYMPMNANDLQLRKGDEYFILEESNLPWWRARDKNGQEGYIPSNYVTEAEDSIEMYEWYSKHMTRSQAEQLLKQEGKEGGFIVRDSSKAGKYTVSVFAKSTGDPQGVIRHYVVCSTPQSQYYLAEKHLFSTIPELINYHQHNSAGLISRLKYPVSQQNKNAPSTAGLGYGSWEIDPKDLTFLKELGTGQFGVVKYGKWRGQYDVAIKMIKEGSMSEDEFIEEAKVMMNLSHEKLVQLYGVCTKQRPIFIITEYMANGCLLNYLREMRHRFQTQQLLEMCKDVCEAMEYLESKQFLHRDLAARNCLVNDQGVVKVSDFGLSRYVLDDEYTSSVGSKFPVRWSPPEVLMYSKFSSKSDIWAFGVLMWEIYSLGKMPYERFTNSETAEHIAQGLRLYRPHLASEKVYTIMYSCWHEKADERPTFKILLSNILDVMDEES
T36 sequence (Q9UHD2 whole entry): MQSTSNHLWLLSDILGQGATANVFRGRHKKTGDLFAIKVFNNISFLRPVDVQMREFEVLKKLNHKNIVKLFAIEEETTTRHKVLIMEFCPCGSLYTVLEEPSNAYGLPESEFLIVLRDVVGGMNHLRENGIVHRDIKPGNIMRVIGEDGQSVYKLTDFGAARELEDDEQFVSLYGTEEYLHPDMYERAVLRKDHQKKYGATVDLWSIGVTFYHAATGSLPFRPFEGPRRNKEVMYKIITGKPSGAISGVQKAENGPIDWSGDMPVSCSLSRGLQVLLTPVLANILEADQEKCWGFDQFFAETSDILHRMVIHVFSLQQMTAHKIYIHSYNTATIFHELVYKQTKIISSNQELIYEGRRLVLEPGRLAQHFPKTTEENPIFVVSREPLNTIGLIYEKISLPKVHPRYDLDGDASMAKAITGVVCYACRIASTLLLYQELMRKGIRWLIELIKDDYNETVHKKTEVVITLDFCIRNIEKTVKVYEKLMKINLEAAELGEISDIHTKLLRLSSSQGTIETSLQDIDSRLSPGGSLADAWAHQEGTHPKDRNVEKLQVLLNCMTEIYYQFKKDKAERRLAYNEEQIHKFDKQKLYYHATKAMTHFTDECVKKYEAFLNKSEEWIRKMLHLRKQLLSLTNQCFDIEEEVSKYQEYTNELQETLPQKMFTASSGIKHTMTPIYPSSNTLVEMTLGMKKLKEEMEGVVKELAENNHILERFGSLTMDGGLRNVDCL
T15 sequence (P08069 31-1367): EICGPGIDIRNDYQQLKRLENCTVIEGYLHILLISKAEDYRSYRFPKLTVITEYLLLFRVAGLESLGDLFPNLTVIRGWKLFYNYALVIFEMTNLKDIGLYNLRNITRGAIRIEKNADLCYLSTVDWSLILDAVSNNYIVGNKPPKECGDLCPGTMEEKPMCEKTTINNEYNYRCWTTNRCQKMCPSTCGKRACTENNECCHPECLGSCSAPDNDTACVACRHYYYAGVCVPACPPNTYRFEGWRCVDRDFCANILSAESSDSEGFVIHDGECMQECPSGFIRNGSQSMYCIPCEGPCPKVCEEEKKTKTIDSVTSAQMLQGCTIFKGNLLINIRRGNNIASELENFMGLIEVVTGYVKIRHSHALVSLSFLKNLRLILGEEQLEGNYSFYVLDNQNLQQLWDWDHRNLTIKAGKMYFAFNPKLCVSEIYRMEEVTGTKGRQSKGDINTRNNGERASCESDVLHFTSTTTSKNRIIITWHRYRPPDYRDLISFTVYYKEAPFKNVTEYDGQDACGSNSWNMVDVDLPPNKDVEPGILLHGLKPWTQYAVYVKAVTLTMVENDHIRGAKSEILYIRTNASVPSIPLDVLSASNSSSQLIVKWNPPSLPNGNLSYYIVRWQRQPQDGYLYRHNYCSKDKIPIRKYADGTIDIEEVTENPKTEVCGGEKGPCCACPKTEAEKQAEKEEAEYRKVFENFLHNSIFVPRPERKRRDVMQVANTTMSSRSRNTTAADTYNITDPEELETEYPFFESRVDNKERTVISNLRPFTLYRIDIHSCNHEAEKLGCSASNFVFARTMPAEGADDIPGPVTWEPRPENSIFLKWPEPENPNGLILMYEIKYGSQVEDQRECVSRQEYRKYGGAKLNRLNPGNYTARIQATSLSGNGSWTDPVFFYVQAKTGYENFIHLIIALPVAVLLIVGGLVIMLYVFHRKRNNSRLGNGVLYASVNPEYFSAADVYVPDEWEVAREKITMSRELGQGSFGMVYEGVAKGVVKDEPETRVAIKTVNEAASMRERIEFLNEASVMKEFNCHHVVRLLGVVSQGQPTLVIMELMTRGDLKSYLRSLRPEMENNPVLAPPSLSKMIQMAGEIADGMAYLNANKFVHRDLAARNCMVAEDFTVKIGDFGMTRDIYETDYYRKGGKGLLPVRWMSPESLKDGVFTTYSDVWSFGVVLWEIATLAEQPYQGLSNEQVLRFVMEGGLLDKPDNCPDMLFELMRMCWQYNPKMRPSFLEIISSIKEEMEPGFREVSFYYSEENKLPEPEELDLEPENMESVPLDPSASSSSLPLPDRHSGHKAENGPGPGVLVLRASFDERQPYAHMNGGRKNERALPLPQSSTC
T32 sequence (Q13464 whole entry): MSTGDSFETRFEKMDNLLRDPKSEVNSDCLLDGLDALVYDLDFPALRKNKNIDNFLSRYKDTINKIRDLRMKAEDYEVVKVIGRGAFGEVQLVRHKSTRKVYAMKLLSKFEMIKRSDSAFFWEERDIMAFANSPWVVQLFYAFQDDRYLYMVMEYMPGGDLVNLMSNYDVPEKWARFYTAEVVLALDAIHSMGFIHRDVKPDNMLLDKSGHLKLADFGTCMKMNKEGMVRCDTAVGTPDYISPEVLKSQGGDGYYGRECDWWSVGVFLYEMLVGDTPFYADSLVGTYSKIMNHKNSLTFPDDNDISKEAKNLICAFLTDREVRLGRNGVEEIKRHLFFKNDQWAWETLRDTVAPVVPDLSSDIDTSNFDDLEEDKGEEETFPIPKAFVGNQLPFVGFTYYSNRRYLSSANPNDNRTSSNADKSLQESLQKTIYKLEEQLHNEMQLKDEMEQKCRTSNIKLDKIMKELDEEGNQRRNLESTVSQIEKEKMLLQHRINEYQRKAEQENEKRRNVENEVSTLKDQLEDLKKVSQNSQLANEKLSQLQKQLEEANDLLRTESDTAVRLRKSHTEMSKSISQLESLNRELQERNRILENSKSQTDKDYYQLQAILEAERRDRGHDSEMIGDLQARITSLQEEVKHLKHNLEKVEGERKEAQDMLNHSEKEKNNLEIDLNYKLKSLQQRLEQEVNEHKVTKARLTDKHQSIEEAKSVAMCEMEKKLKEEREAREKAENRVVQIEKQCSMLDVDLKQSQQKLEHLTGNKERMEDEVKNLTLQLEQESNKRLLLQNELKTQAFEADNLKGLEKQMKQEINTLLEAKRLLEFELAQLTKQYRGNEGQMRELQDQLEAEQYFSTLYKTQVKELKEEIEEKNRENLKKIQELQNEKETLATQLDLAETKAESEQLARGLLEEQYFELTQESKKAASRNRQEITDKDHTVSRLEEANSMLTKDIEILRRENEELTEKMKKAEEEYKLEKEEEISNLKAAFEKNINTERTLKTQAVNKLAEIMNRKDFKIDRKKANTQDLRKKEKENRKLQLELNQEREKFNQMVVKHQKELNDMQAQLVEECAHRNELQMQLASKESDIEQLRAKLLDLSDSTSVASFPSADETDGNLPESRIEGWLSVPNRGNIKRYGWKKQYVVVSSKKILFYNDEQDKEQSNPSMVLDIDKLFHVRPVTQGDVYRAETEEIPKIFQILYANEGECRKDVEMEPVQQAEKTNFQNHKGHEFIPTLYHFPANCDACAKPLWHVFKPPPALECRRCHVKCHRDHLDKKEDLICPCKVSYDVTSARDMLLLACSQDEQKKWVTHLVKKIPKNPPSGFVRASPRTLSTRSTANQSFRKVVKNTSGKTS
T25 sequence (Q02750 whole entry): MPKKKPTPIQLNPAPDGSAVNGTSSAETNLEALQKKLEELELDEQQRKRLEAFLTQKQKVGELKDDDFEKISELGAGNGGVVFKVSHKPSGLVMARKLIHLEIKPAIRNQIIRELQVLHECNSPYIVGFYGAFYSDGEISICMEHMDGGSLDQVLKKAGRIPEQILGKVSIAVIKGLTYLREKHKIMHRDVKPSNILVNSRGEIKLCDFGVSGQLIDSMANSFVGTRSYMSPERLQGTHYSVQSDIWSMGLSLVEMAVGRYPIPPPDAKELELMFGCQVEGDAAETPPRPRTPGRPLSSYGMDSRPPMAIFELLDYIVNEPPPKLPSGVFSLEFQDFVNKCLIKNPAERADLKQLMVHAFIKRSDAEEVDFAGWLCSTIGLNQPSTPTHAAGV

O=C(N1CCCC1)N1CCC(n2cnc3c(-n4c(C(F)F)nc5ccccc54)nc(N4CCOCC4)nc32)CC1 [X-370]
Kinase activity (% of control) (AMPK α1): 101 % of control | Kinase activity (% of control) (ASK1): 107 % of control | Kinase activity (% of control) (Aurora-A): 73 % of control | Kinase activity (% of control) (Axl): 106 % of control | Kinase activity (% of control) (BTK): 121 % of control | Kinase activity (% of control) (CaMKI): 117 % of control | Kinase activity (% of control) (DYRK2): 102 % of control | Kinase activity (% of control) (EGFR): 90 % of control | Kinase activity (% of control) (EphA1): 99 % of control | Kinase activity (% of control) (FAK): 99 % of control | Kinase activity (% of control) (FGFR1): 108 % of control | Kinase activity (% of control) (Flt1): 99 % of control | Kinase activity (% of control) (Fyn): 97 % of control | Kinase activity (% of control) (GSK3 α): 94 % of control | Kinase activity (% of control) (IGF-1R, activated): 120 % of control | Kinase activity (% of control) (IKK α): 95 % of control | Kinase activity (% of control) (IR, activated): 111 % of control | Kinase activity (% of control) (Itk): 106 % of control | Kinase activity (% of control) (KDR): 90 % of control | Kinase activity (% of control) (LKB1): 66 % of control | Kinase activity (% of control) (Lck activated): 89 % of control | Kinase activity (% of control) (MAPK1): 81 % of control | Kinase activity (% of control) (MAPKAP-K2): 95 % of control | Kinase activity (% of control) (MARK1): 89 % of control | Kinase activity (% of control) (MEK1): 109 % of control | Kinase activity (% of control) (Met): 113 % of control | Kinase activity (% of control) (PDK1): 94 % of control | Kinase activity (% of control) (PKA): 106 % of control | Kinase activity (% of control) (PKB α): 87 % of control | Kinase activity (% of control) (PKC α): 96 % of control | Kinase activity (% of control) (PKC μ): 98 % of control | Kinase activity (% of control) (ROCK-I): 93 % of control | Kinase activity (% of control) (Ret): 125 % of control | Kinase activity (% of control) (Ron): 111 % of control | Kinase activity (% of control) (SAPK2a(T106M)): 102 % of control | Kinase activity (% of control) (TBK1): 93 % of control | Kinase activity (% of control) (Tie2): 88 % of control | Kinase activity (% of control) (TrkA): 101 % of control | Kinase activity (% of control) (cKit): 104 % of control | Kinase activity (% of control) (mTOR): 47 % of control | Kinase activity (% of control) (p70S6K): 88 % of control
